Experimental data taken from US20240228555A9, “ANTIMICROBIAL PEPTIDOMIMETICS” (Basilea Pharmaceutica International AG, Allschwil, priority 2020, published 2024).
Where a SMILES comes first, the peptide text is derived from it. Bridges are numbered along the chain shown (N, C = ends). [ ]: non-standard residue; d: D form. Dab(iPr) = CC(C)NCC[C@H](N)C(=O)O; Hyp = O=C(O)[C@@H]1C[C@@H](O)CN1; Pen = CC(C)(S)[C@H](N)C(=O)O; dDab = NCC[C@@H](N)C(=O)O

Columns and labels:
[1] = test system: human red blood cells (hRBC); assay type: cell-based; conditions: red cells of human, 1 h, 0.2 g/L
In short: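 Percent lysis was derived from supernatant absorbance at 540 nm relative to full lysis by 2.5% Triton X-100 (PBS defines 0%). Compounds, 200 μg/mL, were exposed for 1 h at 37° C to a 20% (v/v) suspension of washed human red cells.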

[2] = test system: Escherichia coli ATCC 25922; conditions: ATCC 25922
In short: (§1)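 Peptides were made up as 1 mg/mL stocks in sterile water. Colonies in 0.85% saline were set to 0.5 McFarland, then diluted in cation-adjusted Mueller-Hinton II broth to about 5×10^5 CFU/mL. Inoculum was combined with two-fold serial peptide dilutions in water containing 0.002% (final) polysorbate 80.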

[3] = test system: Escherichia coli MCR-1 Af 45; conditions: Mueller-Hinton broth II, no visible growth after 18-20 hours at 35° C.
In short: as §1

[4] = test system: Klebsiella pneumoniae SSI3010; conditions: SSI3010
In short: as §1

SMILES	Hemolysis at 0.2 g/L [1]	Escherichia coli ATCC 25922 MIC [2]	Escherichia coli MCR-1 Af 45 MIC [3]	Klebsiella pneumoniae SSI3010 MIC [4]
CC[C@H](C)[C@H](NC(=O)[C@@H](NC(=O)[C@@H]1C[C@@H](N)CN1C(=O)[C@@H](N)C(C)C)[C@@H](C)CC)C(=O)N[C@@H](Cc1ccc(O)cc1)C(=O)N[C@@H]1C(=O)N[C@@H](CC(N)=O)C(=O)N[C@@H](CCCNC(=N)N)C(=O)N[C@@H](CCN)C(=O)N[C@@H]([C@@H](C)O)C(=O)N[C@H](CCN)C(=O)N[C@@H](CCCCN)C(=O)N[C@H](C(=O)N[C@@H](CCN)C(=O)N[C@@H](CO)C(=O)N[C@@H](Cc2ccc(O)cc2)C(=O)O)CSSC1(C)C [Example 100, Val-Pro((4R)NH2)-Ile-Ile-Tyr-Pen-Asn-Arg-Dab-Thr-^DDab-Lys-Cys-Dab-Ser-Tyr] (HELM PEPTIDE1{V.[N[C@@H]1C[C@@H](C(=O)[*:2])N([*:1])C1].I.I.Y.[Pen].N.R.[Dab].T.[NCC[C@@H](N[*:1])C(=O)[*:2]].K.C.[Dab].S.Y}$PEPTIDE1,PEPTIDE1,6:R3-13:R3$$$V2.0)	<1%	0.25 µg/mL	0.0625 µg/mL	0.25 µg/mL
CC[C@H](C)[C@H](NC(=O)[C@@H](NC(=O)[C@@H]1C[C@@H](O)CN1C(=O)[C@@H](N)C(C)C)[C@@H](C)CC)C(=O)N[C@@H](Cc1ccc(O)cc1)C(=O)N[C@@H]1C(=O)N[C@@H](CC(N)=O)C(=O)N[C@@H](CCCNC(=N)N)C(=O)N[C@@H](CCN)C(=O)N[C@@H](CO)C(=O)N[C@H](CCN)C(=O)N[C@@H]([C@@H](C)CC)C(=O)N[C@H](C(=O)N[C@@H](CCN)C(=O)N[C@@H](CCN)C(=O)N[C@@H](Cc2ccc(O)cc2)C(=O)O)CSSC1(C)C [Example 84, Val-Hyp-Ile-Ile-Tyr-Pen-Asn-Arg-Dab-Ser-^DDab-Ile-Cys-Dab-Dab-Tyr] (HELM PEPTIDE1{V.[Hyp].I.I.Y.[Pen].N.R.[Dab].S.[NCC[C@@H](N[*:1])C(=O)[*:2]].I.C.[Dab].[Dab].Y}$PEPTIDE1,PEPTIDE1,6:R3-13:R3$$$V2.0)	<1%	0.25 µg/mL	0.25 µg/mL	0.5 µg/mL
CC[C@H](C)[C@H](NC(=O)[C@@H]1C[C@@H](O)CN1C(=O)[C@@H](N)C(C)C)C(=O)N[C@H](C(=O)N[C@@H](Cc1ccc(O)cc1)C(=O)N[C@@H]1C(=O)N[C@@H](CC(N)=O)C(=O)N[C@@H](CCCNC(=N)N)C(=O)N[C@@H](CCNC(C)C)C(=O)N[C@@H]([C@@H](C)O)C(=O)N[C@H](CCN)C(=O)N[C@@H](CCCCN)C(=O)N[C@H](C(=O)N[C@@H](CCNC(C)C)C(=O)N[C@@H](CCCNC(=N)N)C(=O)N[C@@H](Cc2ccc(O)cc2)C(=O)O)CSSC1(C)C)[C@@H](C)O [Example 135, Hyp-Ile-Thr-Tyr-Pen-Asn-Arg-Dab(iPr)-Thr-^DDab-Lys-Cys-Dab(iPr)-Arg-Tyr] (H-V[Hyp]ITY[Pen]NR[Dab(iPr)]T[dDab]KC[Dab(iPr)]RY-OH; disulfide 6-13)	<1%	0.25 µg/mL	0.25 µg/mL	0.5 µg/mL
CC[C@H](C)[C@H](NC(=O)[C@@H](NC(=O)[C@@H]1C[C@@H](N)CN1C(=O)[C@@H](N)C(C)C)[C@@H](C)CC)C(=O)N[C@@H](Cc1ccc(O)cc1)C(=O)N[C@@H]1C(=O)N[C@@H](CC(N)=O)C(=O)N[C@@H](CCCNC(=N)N)C(=O)N[C@@H](CCN)C(=O)N[C@@H]([C@@H](C)O)C(=O)N[C@H](CCN)C(=O)N[C@@H](CCCCN)C(=O)N[C@H](C(=O)N[C@@H](CO)C(=O)N[C@@H](CCCNC(=N)N)C(=O)N[C@@H](Cc2ccc(O)cc2)C(=O)O)CSSC1(C)C [Example 93, Val-Pro((4R)NH2)-Ile-Ile-Tyr-Pen-Asn-Arg-Dab-Thr-^DDab-Lys-Cys-Ser-Arg-Tyr] (HELM PEPTIDE1{V.[N[C@@H]1C[C@@H](C(=O)[*:2])N([*:1])C1].I.I.Y.[Pen].N.R.[Dab].T.[NCC[C@@H](N[*:1])C(=O)[*:2]].K.C.S.R.Y}$PEPTIDE1,PEPTIDE1,6:R3-13:R3$$$V2.0)	<1%	0.25 µg/mL	0.0625 µg/mL	0.25 µg/mL
CC[C@H](C)[C@H](NC(=O)[C@@H]1C[C@@H](N)CN1C(=O)[C@@H](N)C(C)C)C(=O)N[C@H](C(=O)N[C@@H](Cc1ccc(O)cc1)C(=O)N[C@@H]1C(=O)N[C@@H](CC(N)=O)C(=O)N[C@@H](CCCNC(=N)N)C(=O)N[C@@H](CCN)C(=O)N[C@@H]([C@@H](C)O)C(=O)N[C@H](CCN)C(=O)N[C@@H](CCCCN)C(=O)N[C@H](C(=O)N[C@@H](CO)C(=O)N[C@@H](CO)C(=O)N[C@@H](Cc2ccc(O)cc2)C(=O)O)CSSC1(C)C)[C@@H](C)O [Example 103, Val-Pro((4R)NH2)-Ile-Thr-Tyr-Pen-Asn-Arg-Dab-Thr-^DDab-Lys-Cys-Ser-Ser-Tyr] (HELM PEPTIDE1{V.[N[C@@H]1C[C@@H](C(=O)[*:2])N([*:1])C1].I.T.Y.[Pen].N.R.[Dab].T.[NCC[C@@H](N[*:1])C(=O)[*:2]].K.C.S.S.Y}$PEPTIDE1,PEPTIDE1,6:R3-13:R3$$$V2.0)	<1%	0.5 µg/mL	0.125 µg/mL	0.5 µg/mL
CC[C@H](C)[C@H](NC(=O)[C@@H](NC(=O)[C@@H]1C[C@@H](O)CN1C(=O)[C@@H](N)C(C)C)[C@@H](C)CC)C(=O)N[C@@H](Cc1ccc(O)cc1)C(=O)N[C@@H]1C(=O)N[C@@H](CC(N)=O)C(=O)N[C@@H](CCCNC(=N)N)C(=O)N[C@@H](CCN)C(=O)N[C@@H](CO)C(=O)N[C@H](CCN)C(=O)N[C@@H](CCCCN)C(=O)N[C@H](C(=O)N[C@@H](CCN)C(=O)N[C@@H](CCCNC(=N)N)C(=O)N[C@@H](Cc2ccc(O)cc2)C(=O)O)CSSC1(C)C [Example 75, Val-Hyp-Ile-Ile-Tyr-Pen-Asn-Arg-Dab-Ser-^DDab-Lys-Cys-Dab-Arg-Tyr] (HELM PEPTIDE1{V.[Hyp].I.I.Y.[Pen].N.R.[Dab].S.[NCC[C@@H](N[*:1])C(=O)[*:2]].K.C.[Dab].R.Y}$PEPTIDE1,PEPTIDE1,6:R3-13:R3$$$V2.0)	<1%	0.0625 µg/mL	0.0625 µg/mL	0.125 µg/mL
CC[C@H](C)[C@H](NC(=O)[C@@H]1C[C@@H](O)CN1C(=O)[C@@H](N)C(C)C)C(=O)N[C@@H](CCCN)C(=O)N[C@@H](Cc1ccc(O)cc1)C(=O)N[C@@H]1C(=O)N[C@@H](CC(N)=O)C(=O)N[C@@H](CCCNC(=N)N)C(=O)N[C@@H](CCN)C(=O)N[C@@H]([C@@H](C)O)C(=O)N[C@H](CCN)C(=O)N[C@@H](CCCCN)C(=O)N[C@H](C(=O)N[C@@H](CCN)C(=O)N[C@H](C(=O)N[C@@H](Cc2ccc(O)cc2)C(=O)O)[C@@H](C)O)CSSC1(C)C [Example 122, Val-Hyp-Ile-Orn-Tyr-Pen-Asn-Arg-Dab-Thr-^DDab-Lys-Cys-Dab-Thr-Tyr] (HELM PEPTIDE1{V.[Hyp].I.[Orn].Y.[Pen].N.R.[Dab].T.[NCC[C@@H](N[*:1])C(=O)[*:2]].K.C.[Dab].T.Y}$PEPTIDE1,PEPTIDE1,6:R3-13:R3$$$V2.0)	<1%	0.25 µg/mL	0.125 µg/mL	0.5 µg/mL
